We go through 13 molecules from patent US7973050B2, “Enantiomeric compounds with antibacterial activity” (Crestone, Inc., priority 2006, dated 2011).

Broadly, the Ki is a dissociation constant, usually derived from enzyme kinetics or from competition with a known ligand. For orientation: MIC90 means the lowest concentration that inhibits either 90% of growth or 90% of the strains tested, depending on the study.

The target in experiment [1] is Clostridium difficile MetRS (Clostridioides difficile, UniProt Q181D9, C642S). Nature of the experiment: C. difficile MetRS inhibition (tRNA charging SPA assay). It is filed as biochemical. How it is done: Compounds of the present invention were assayed to determine their ability to inhibit MetRS. Assays were performed as follows:
Each reaction was started by adding 20 μl appropriately diluted pure enzyme (pre-incubated with inhibitor) to 25 μl reaction mix for 10 min at room temperature. The reaction is terminated by the addition of 150 μl 167 mM sodium citrate, pH 2.15 containing phosphodiesterase (PDE) SPA beads (0.833 mg/ml). The binding of the radiolabelled product to the bead brings the isotope into close enough proximity to allow radiation from the tritium to excite the scintillant within the bead. Any unbound radiolabel is not close enough to the scintillant to allow this energy transfer, so no signal is generated. Following termination of the reaction, plates are spun at 2500 rpm for 5 min in a Mistral 3000E plate centrifuge (or alternatively allowed to stand for 1 hour). The assay is conducted in 96-well Optiplates (Packard). Plates are counted on a TopCount. (Packard 96 well counter).
Mixed E. coli MRE 600 tRNA and ATP were purchased from Boehringer-Mannheim, L-[methyl-^3H]methionine and phosphodiesterase scintillation proximity (SPA) beads from Amersham Pharmacia Biotech and other reagents from Sigma.

Experiment [2] has as its system C. difficile clinical isolates (spore production). The experiment in a line: C. difficile sporulation on agar with subMIC drug. It is filed as cell-based, Clostridium difficile. As to conditions: 96 hours.
The subject of a further experiment is rat MetRS. Nature of the experiment: Mammalian MetRS inhibition (selectivity). The class given is biochemical. As to conditions: mammalian enzyme.
The test system of experiment [3] is C. difficile. The experiment in a line: MIC90 against C. difficile clinical isolates, agar dilution (CLSI). It is filed as cell-based. The settings on record: Clostridioides difficile, read-out: MIC90 against Clostridium difficile.
Experiment [4] relates to C. difficile. The experiment in a line: C. difficile-infected hamster survival study. The class given is in vivo. As to the method:
Animal studies were performed to determine the efficacy of MetRS inhibitors for treating C. difficile-infections. The MetRS inhibitors tested were 5-[3-((R)-6,8-Dibromo-chroman-4-ylamino)-propylamino]-4H-thieno[3,2-b]pyridine-7-one (both racemic mixture and the R enantiomer) and 5-[3-((R)-8-Bromo-6-chloro-chroman-4-ylamino)-propylamino]-4H-thieno[3,2-b]pyridin-7-one. Also tested was 2-(3-{3,5-Dibromo-2-[2-(4-methyl-thiazol-5-yl)-ethoxy]-benzylamino}-propylamino)-1H-quinolin-4-one.
Results were compared to C. difficile-infected hamsters treated with the conventional antibiotic, vancomycin. Infected hamsters were treated with either a solution or suspension of a MetRS inhibitor at 5 to 50 mg/kg or vancomycin at 2.5, 5 or 25 mg/kg. There were eight hamsters per group with the final endpoint of the experiment being survival. Expired hamsters were examined for GI condition.

Where [5] appears, read: range stated for the group of listed examples, read-out: Ki, inhibition of Clostridium difficile MetRS.
Setting [6] is: agar dilution, clinical isolates, 24 hours at 35° C. anaerobic, range stated for the group.

Values after ≈ are worked out from the molar mass of the structure shown. Where a name gives a salt, the structure may show the parent alone. Read-outs that look alike come from different tables or passages of the source.

Clostridium difficile MetRS, sequence (Q181D9 2-645 C642S): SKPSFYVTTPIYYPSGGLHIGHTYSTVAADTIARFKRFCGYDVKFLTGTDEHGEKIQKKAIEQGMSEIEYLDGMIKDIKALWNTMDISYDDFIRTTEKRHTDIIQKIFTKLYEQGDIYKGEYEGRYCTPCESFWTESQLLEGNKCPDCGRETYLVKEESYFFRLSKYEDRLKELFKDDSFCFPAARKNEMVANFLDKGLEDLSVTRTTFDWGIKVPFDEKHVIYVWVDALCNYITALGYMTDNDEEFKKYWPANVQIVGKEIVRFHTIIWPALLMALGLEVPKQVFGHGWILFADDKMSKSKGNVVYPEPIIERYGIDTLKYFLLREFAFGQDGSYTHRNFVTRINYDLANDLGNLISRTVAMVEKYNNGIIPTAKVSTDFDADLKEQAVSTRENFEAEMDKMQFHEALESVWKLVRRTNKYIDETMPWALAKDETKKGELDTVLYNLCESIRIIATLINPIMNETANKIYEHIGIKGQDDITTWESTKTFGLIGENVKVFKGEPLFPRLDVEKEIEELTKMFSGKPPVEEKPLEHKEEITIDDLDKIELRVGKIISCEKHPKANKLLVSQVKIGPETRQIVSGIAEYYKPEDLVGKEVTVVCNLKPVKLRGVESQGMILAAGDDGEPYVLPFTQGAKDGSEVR

With `O=c1cc(NCCCN[C@H]2COc3c(Br)cc(Br)cc32)[nH]c2ccsc12` [Example 12, 5-[3-((R)-5,7-Dibromo-2,3-dihydro-benzofuran-3-ylamino)-propylamino]-4H-thieno[3,2-b]pyridine-7-one], in experiment [1] (setting [5]), the Ki is 24 to 80 nM.
As for `Cc1ncc([N+](=O)[O-])n1CCO` [metronidazole, reference compound], the “spores after exposure to subMIC concentrations” value in experiment [2] (all tested strains, subMIC) is “up to 100%”.
Take `O=c1cc(NCCCN[C@H]2CCOc3c(Br)cc(Br)cc32)[nH]c2ccccc12` (single isomer, unassigned) [Example 7, di-hydrochloride]: the Ki in experiment [1] fell in the range of 24 to 80 nM.
The same measure, in the same setting: the value for `O=c1cc(NCCCN[C@H]2CCNc3c(Br)cc(Br)cc32)[nH]c2ccsc12` (single isomer, unassigned) [Example 9, tri-hydrochloride] was 24 to 80 nM.
In the case of `O=c1cc(NCCCN[C@@H]2COc3c(Br)cc(Br)cc32)[nH]c2ccsc12` [Example 11, 5-[3-((S)-5,7-Dibromo-2,3-dihydro-benzofuran-3-ylamino)-propylamino]-4H-thieno[3,2-b]pyridine-7-one], the “inhibition of mammalian (rat) MetRS” value in the experiment with rat MetRS is recorded as “no inhibition”. In addition, the MIC90 in the experiment with C. difficile [3] (setting [6]) lay in the range of 0.25 to 4 µg/mL (≈ 0.501 to 8.01 µM). The Ki in experiment [1] (setting [5]) was in the range of 0.015 to 0.025 nM.
As for `O=c1cc(NCCCN[C@@H]2CCNc3c(Br)cc(Br)cc32)[nH]c2ccsc12` (single isomer, unassigned) [Example 8, tri-hydrochloride], the “inhibition of mammalian (rat) MetRS” value in the experiment on rat MetRS is on record as “no inhibition”. The MIC90 with C. difficile [3] (24 h) fell in the range of 0.25 to 4 µg/mL. Moreover, the Ki in experiment [1] lay in the range of 0.015 to 0.025 nM.
As for `O=c1cc(NCCCN[C@@H]2CCCc3c(Br)cc(Br)cc32)[nH]c2ccsc12` [Example 10, 5-[3-((R)-5,7-Dibromo-1,2,3,4-tetrahydro-naphthalen-1-ylamino)-propylamino]-4H-thieno[3,2-b]pyridine-7-one], in the experiment on rat MetRS, the “inhibition of mammalian (rat) MetRS” value is on record as “no inhibition”. Besides, the MIC90 with C. difficile [3] (setting [6]) is 0.25 to 4 µg/mL (≈ 0.489 to 7.82 µM). Moreover, the Ki in experiment [1] (setting [5]) fell in the range of 0.015 to 0.025 nM.
With `CN[C@H](CC(C)C)C(=O)N[C@H]1C(=O)N[C@@H](CC(N)=O)C(=O)N[C@H]2C(=O)N[C@H]3C(=O)N[C@H](C(=O)N[C@H](C(=O)O)c4cc(O)cc(O)c4-c4cc3ccc4O)[C@H](O)c3ccc(c(Cl)c3)Oc3cc2cc(c3O[C@@H]2O[C@H](CO)[C@@H](O)[C@H](O)[C@H]2O[C@H]2C[C@](C)(N)[C@H](O)[C@H](C)O2)Oc2ccc(cc2Cl)[C@H]1O` [vancomycin, reference compound], the “survival on Day 28 (vancomycin comparator)” value in the experiment on C. difficile [4] (C. difficile-infected hamsters, vancomycin at 2.5, 5 or 25 mg/kg) is 0-10%.
With `O=c1cc(NCCCN[C@H]2CCOc3c(Br)cc(Cl)cc32)[nH]c2ccsc12` (single isomer, unassigned) [Example 5, di-hydrochloride], in experiment [1], the Ki lay within 24 to 80 nM.
Turning to `O=c1cc(NCCCN[C@@H]2CCOc3c(Br)cc(Br)cc32)[nH]c2ccccc12` (single isomer, unassigned) [Example 6, di-hydrochloride], the “inhibition of mammalian (rat) MetRS” value with rat MetRS was “no inhibition”. In addition, the MIC90 with C. difficile [3] (24 h) was in the range of 0.25 to 4 µg/mL. In addition, the Ki in experiment [1] fell in the range of 0.015 to 0.025 nM.
For `O=c1cc(NCCCN[C@@H]2CCOc3c(Br)cc(Cl)cc32)[nH]c2ccsc12` (single isomer, unassigned) [Example 4, di-hydrochloride] the same measures were “no inhibition”, 0.25 to 4 µg/mL and 0.015 to 0.025 nM.
For the molecule `O=c1cc(NCCCN[C@@H]2CCOc3c(Br)cc(Br)cc32)[nH]c2ccsc12` (single isomer, unassigned) [Example 2, di-hydrochloride], the “spores (ratio of spores to total cells) at 0.25×MIC” value in experiment [2] (all strains, 0.25×MIC) is < 2%. Besides, the “spores (ratio of spores to total cells) at 0.5×MIC” value in experiment [2] (all strains, 0.5×MIC) was < 1%. Further, the “effect on spore production, in words” value in experiment [2] (subMIC concentrations) is “effective in preventing vegetative cells of C. difficile from forming spores”. Moreover, the “inhibition of mammalian (rat) MetRS” value in the experiment on rat MetRS was “no inhibition”. Moreover, in the experiment with C. difficile [4] (MetRS inhibitor at 5 to 50 mg/kg, solution or suspension), the “efficacy (survival) in infected hamsters, in words” value is listed as “best efficacy”. Further, the MIC90 in the experiment with C. difficile [3] (setting [6]) fell in the range of 0.25 to 4 µg/mL. In addition, the Ki in experiment [1] lay within 0.015 to 0.025 nM.
Take `O=c1cc(NCCCN[C@H]2CCOc3c(Br)cc(Br)cc32)[nH]c2ccsc12` (single isomer, unassigned) [Example 3, di-hydrochloride]: the Ki in experiment [1] was in the range of 24 to 80 nM.
